Source: patent publication US20260248762A1, “RRX-001 FOR […]-INFARCT ADVERSE V[…] COMPLICATIONS” (EpicentRx, Inc., priority 2022, published 2026)

Experiments:
[1] = tested on: Male Wistar rats; assay: Acute changes in heart rate during reperfusion, rat myocardial ischemia reperfusion; type: in vivo; conditions: infusion of RRx-001, i.v. in DMSO; in sham animals or relative to animals with I/R; FIG. 1
Experimental: (§1) Animal experiments were performed in accordance with protocols approved. Male Wistar rats or subjects (about 8-9 weeks old) were purchased from Charles River (San Diego, California) and allowed about 1 week to acclimatize to the new environment prior to random allocation into four groups (n=8 per group). The groups included: a first group 106 (sham), a second group 108 (RRx-001), a third group 110 (RRx-001 I/R), and a fourth group 112 (I/R).
(§2) The first group 106 included sham subjects (e.g., no treatment). The subjects of the second group 108 were given about 5 mg/kg of RRx-001 prepared in dimethyl sulfoxide (DMSO) and administered to the subjects via intravenous administration. The subjects of the second group 108 were not subjected to ischemia. […]
(§3) Regarding the myocardial ischemia reperfusion, the subjects were anesthetized with isoflurane (5% induction and 2% maintenance in 30% oxygen) and placed on a thermal heating pad. […] The knot was removed, the chest was closed, and the hearts of the subjects were monitored for a time period of one hour during reperfusion. […]
FIG. 1 depicts a graph comparing acute changes in heart rate (HR) during reperfusion for various groups of Example 1, according to at least some embodiments disclosed herein. FIG. 1 includes an x-axis 102 associated with time (measured in minutes) and a y-axis 104 associated with HR (measured in beats per minute or “bpm”).

[2] = tested on: Male Wistar rats; assay: Hypotensive effects after RRx-001 treatment; type: in vivo, rat; conditions: treatment after reperfused MI
Experimental: as §1
as §2, with “ischemia. The subjects of the third group 110 were administered about 0.5 mg/kg of RRx-001 prepared in DMSO via intravenous administration during reperfusion after ischemia. The subjects of the fourth group 112 were untreated, but subjected to ischemia and reperfusion.” for “ischemia.”
as §3

O=C(CBr)N1CC([N+](=O)[O-])([N+](=O)[O-])C1 [RRx-001, 2-bromo-1-(3,3-dinitroazetidin-1-yl)ethan-1-one]
acute changes in heart rate (HR) during reperfusion [1]: did not result in any acute changes in HR | hypotensive effects [2]: No hypotensive effects were observed
